In article PMC11395333, “The Bifunctional Dimer Caffeine-Indan Attenuates α-Synuclein Misfolding, Neurodegeneration and Behavioral Deficits after Chronic Stimulation of Adenosine A1 Receptors” (International Journal of Molecular Sciences, 2024):

Key:
Type in all cases: in vivo, rat
[1] = system: SN pars compacta and hippocampal CA1 neurons; test: Fluoro-Jade C staining of brain slices (neurodegeneration)
Excerpt: All animals were housed and treated humanely following the guidelines from the following governing bodies: National Research Council (US) Committee for the Update of the Guide for the Care and Use of Laboratory Animals (Washington DC, USA, 2011); Canadian Council on Animal Care (CCAC); and the University of Saskatchewan Animal Research Ethics Board (AREB), which approved our Animal Use Protocol (#20070090 and #20170079). The animals were housed in cages of two, with access to food pellets and water ad libitum. The four treatments of the Sprague-Dawley rats consisted of the following: 1. Control (0.1% DMSO in 0.9% saline); 2. CPA; 3. […] Drugs were dissolved at 3 mg/mL in DMSO, and each drug was administered to the animals by daily i.p. injections (3 mg/kg or 5 mg/kg body weight) for 7 consecutive days. […] Then, on days 8 and 9 following the final injections, the animals were subjected to several behavioral tests. Fluro-Jade C (FJC) is a fluorescent marker for neurodegeneration (Millipore-Sigma, Oakville, ON, Canada; Cat# AG325). […] Initially, the microscope slides were immersed in 1% NaOH/80% ethanol for 5 min followed by 2 min immersion in 70% ethanol. The slides were then rinsed for 2 min with ultra-pure water. The microscope slides were further immersed in 0.06% KMnO4 for 10 min, followed by an additional rinse for 2 min with ultra-pure water. The slides were then stained with 0.004% FJC in 0.1% acetic acid for 20 min with gentle shaking on an orbital shaker. Lastly, the slides were rinsed three times in ultra-pure water for 1 min each, making sure to remove all the excess water after each rinse. The slides were then rinsed in xylene and allowed to dry overnight at 4 °C. Then they were treated with Prolong Gold Antifade Reagent from Invitrogen (Thermo Fisher Scientific, Waltham, MA, USA), and respective images were taken using a Zeiss LSM700 confocal microscope (Carl Zeiss Group, Canada) and analyzed with ImageJ (Public Domain). FJC fluorescence was obtained by exciting the dye with a 488 nm laser.

male Sprague-Dawley rats [2] = test: Forced swim test after 7-day chronic i.p. CPA injection
Excerpt: All animals were housed and treated humanely following the guidelines from the following governing bodies: National Research Council (US) Committee for the Update of the Guide for the Care and Use of Laboratory Animals (Washington DC, USA, 2011); Canadian Council on Animal Care (CCAC); and the University of Saskatchewan Animal Research Ethics Board (AREB), which approved our Animal Use Protocol (#20070090 and #20170079). The animals were housed in cages of two, with access to food pellets and water ad libitum. The four treatments of the Sprague-Dawley rats consisted of the following: 1. Control (0.1% DMSO in 0.9% saline); 2. CPA; 3. […] Drugs were dissolved at 3 mg/mL in DMSO, and each drug was administered to the animals by daily i.p. injections (3 mg/kg or 5 mg/kg body weight) for 7 consecutive days. […] Then, on days 8 and 9 following the final injections, the animals were subjected to several behavioral tests. The forced swim test is used to assess depressive behavior such as despair and learned helplessness. The test is also used to assess the vigor and the ability of the animal to keep its head above the water in which the animals swim. In addition, the first and last three minutes of the test were manually scored for the ability of the rat to swim with all its four limbs. […] In addition, the ability of the animal to keep its head above water was scored. […] The forced swim test apparatus was a plexiglass cuboid measuring 30 cm in length, 30 cm in width and 60 cm in depth. The tank was then filled two-thirds with lukewarm water not exceeding 25 °C. Afterwards, the animal was left in the cylinder for 10 min during which its time spent immobile as well as its ability to swim and keep its head above water was analyzed. This trial was then used to calculate the percentage of time the animals spent immobile, as well as the vigor and success with which the animal swam. A video camera was used to record the animal movement in this test. The forced swim test was conducted the following day (day nine), giving the animals a sufficient resting period from the Y-maze and open field tests. Each experiment was repeated at least fifteen times per treatment, and the average of each treatment is presented in the bar graphs as average means ± SEM.

male Sprague-Dawley rats [3] = test: Y-maze test after 7-day chronic i.p. CPA injection
Excerpt: All animals were housed and treated humanely following the guidelines from the following governing bodies: National Research Council (US) Committee for the Update of the Guide for the Care and Use of Laboratory Animals (Washington DC, USA, 2011); Canadian Council on Animal Care (CCAC); and the University of Saskatchewan Animal Research Ethics Board (AREB), which approved our Animal Use Protocol (#20070090 and #20170079). The animals were housed in cages of two, with access to food pellets and water ad libitum. The four treatments of the Sprague-Dawley rats consisted of the following: 1. Control (0.1% DMSO in 0.9% saline); 2. CPA; 3. […] Drugs were dissolved at 3 mg/mL in DMSO, and each drug was administered to the animals by daily i.p. injections (3 mg/kg or 5 mg/kg body weight) for 7 consecutive days. […] Then, on days 8 and 9 following the final injections, the animals were subjected to several behavioral tests. The Y-maze or the modified Y-maze is a rodent behavior test used to assess short-term spatial memory based on the innate inclination of animals to explore new areas not previously seen. In this study, the Y-maze test is used to assess short-term memory, especially hippocampal-dependent spatial memory. The maze is shaped like a “Y”, with each arm oriented at a 120° angle from one another. The arms are 50 cm in length, 15 cm in width and 35 cm in depth. For the first trial, which lasts 15 min, the animal is placed at the beginning of the “Start arm” and is free to explore this arm and another one (referred to as the “Old arm”), while the remaining arm (“New arm”) is blocked. This trial should give the animal time to explore and become acquainted with the maze’s two arms. After a resting period of 90 min, the blocked arm is opened, and the animal is placed again at the “Start arm”. […] This trial is then used to calculate the percentage of time the animals spent in each arm. A video camera was used to record the animal movement in both trials. Each experiment was repeated at least fifteen times per treatment and the average of each treatment is presented in the bar graphs as average means ± standard error of the mean (SEM).

[4] = 5 mg/kg i.p. with 3 mg/kg CPA, 7 days
[5] = 3 or 5 mg/kg i.p. with 3 mg/kg CPA, 7 days
[6] = CPA 3 mg/kg i.p. daily for 7 days, alone

Structure (SMILES)	FJC staining in SNc ([1]; 3 mg/kg and 5 mg/kg + CPA)	FJC, neurodegeneration in CA1 region of the hippocampus ([1]; 3 mg/kg or 5 mg/kg with CPA)	Forced swim test, vigor and success scores (male Sprague-Dawley rats [2]; [4])	Forced swim test, immobility time (male Sprague-Dawley rats [2]; [5])	Forced swim test, motor deficits (male Sprague-Dawley rats [2]; [5])	Y-maze, time spent in the start arm (male Sprague-Dawley rats [3]; 3 mg/kg i.p. with 3 mg/kg CPA, 7 days)	Y-maze, cognitive deficits (male Sprague-Dawley rats [3]; [4])	Y-maze, percentage of time spent in the novel arm (male Sprague-Dawley rats [3]; 3 or 5 mg/kg i.p. co-administered with 3 mg/kg CPA, 7 days)	FJC fluorescence in SNc [1, 6]	FJC, degenerating neurons in CA1 region of the hippocampus [1, 6]	Forced swim test, motor deficits (male Sprague-Dawley rats [2]; [6])	Y-maze, hippocampal-dependent spatial memory (male Sprague-Dawley rats [3]; [6])
Cn1c(=O)c2c(nc(CCCCCCNC3CCc4ccccc43)n2C)n(C)c1=O (stereo not drawn) [C8–6–I]	did not significantly increase FJC staining compared to the vehicle control slices	prevented neurodegeneration in hippocampal slices	significantly improved the ability to purposely swim and use all limbs, as well as the ability to keep their head above water	spent significantly less time being immobile compared to the CPA-treated rats	produced no significant motor deficits	approximately 45%	significantly ameliorated the cognitive deficits caused by CPA	attenuated the learning deficits caused by CPA				
OC[C@H]1O[C@@H](n2cnc3c(NC4CCCC4)ncnc32)[C@H](O)[C@@H]1O [CPA, N^6-Cyclopentyladenosine, reference compound]									increased the levels of FJC fluorescence compared to the control	much higher levels of degenerating CA1 pyramidal neurons compared to the control	induced an increase in motor deficits	induced hippocampal-dependent spatial memory deficits
